In patent US20220096450A1, “Compounds and Methods for Treating or Preventing Heart Failure” (DREXEL UNIVERSITY, priority 2019, published 2022):

biological target: SQOR (Homo sapiens, UniProt Q9Y6N5); test: DCIP endpoint assay of SQOR activity; format: biochemical; conditions: Table 1, SAR of Set A/A′ and Set B; read-out: IC50
Description: The assay is based on the ability of reduced CoQ1, which is produced in the SQOR reaction, to nonenzymically reduce 2,6-dichloroindiphenol (DCIP) (Δεox-red=20 mM−1 cm−1 at 600 nm). Reaction mixtures containing SQOR, substrates (H2S, sulfite, CoQ1) and various concentrations of an inhibitor are incubated in 96-well plates for 60 s. The reactions are quenched by addition of formaldehyde and N-ethylmaleimide to denature SQOR and consume unreacted H2S, respectively, and are then incubated for 10 min prior to addition of DCIP. The absorbance at 600 nm is read 30 s after DCIP addition by using a BioTek Synergy 2 plate reader.

Sequence of SQOR (Q9Y6N5 whole entry): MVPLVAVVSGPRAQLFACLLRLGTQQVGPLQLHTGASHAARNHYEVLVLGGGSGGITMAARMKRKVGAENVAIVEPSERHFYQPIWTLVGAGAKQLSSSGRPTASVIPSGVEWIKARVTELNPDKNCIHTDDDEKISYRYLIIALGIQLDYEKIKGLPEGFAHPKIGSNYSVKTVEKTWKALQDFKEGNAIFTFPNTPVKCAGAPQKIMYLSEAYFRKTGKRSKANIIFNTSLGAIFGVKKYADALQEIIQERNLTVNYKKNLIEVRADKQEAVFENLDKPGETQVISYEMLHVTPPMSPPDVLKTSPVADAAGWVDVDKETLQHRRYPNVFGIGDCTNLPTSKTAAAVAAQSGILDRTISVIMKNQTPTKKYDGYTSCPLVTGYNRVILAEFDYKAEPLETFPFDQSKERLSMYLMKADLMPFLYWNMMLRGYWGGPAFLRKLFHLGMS

Which IC50 does the source give for `O=[N+]([O-])c1cc(Cl)c(-n2cccc2)cc1N1CCCCC1` [Compound 2, 1-(4-chloro-2-nitro-5-(1H-pyrrol-1-yl)phenyl)piperidine] here?
Its IC50 is 0.025 µM.

For `N#Cc1c(-c2ccccc2)cc(-c2ccc(O)cc2)nc1N` [Compound 17, 2-amino-6-(4-hydroxyphenyl)-4-phenylnicotinonitrile], which IC50 is on record?
The IC50 was 12 µM.

Which IC50 does the source give for `COc1nc2c(c(-c3cc(Cl)ccc3F)c1C#N)Cc1ccccc1-2` [Compound 9, 4-(5-chloro-2-fluorophenyl)-2-methoxy-5H-indeno[1,2-b]pyridine-3-carbonitrile] here?
The IC50 was 3.5 µM.

With `O=[N+]([O-])c1cc(Cl)c(-n2cccc2)cc1N1CCCC1` [Compound 20, 1-(2-chloro-4-nitro-5-(pyrrolidin-1-yl)phenyl)-1H-pyrrole] as the compound, how does the IC50 read?
Its IC50 is 0.46 µM.

same assay, conditions: Table 3; read-out: IC50

Which IC50 does the source give for `N#CCOc1nc(-c2ccccn2)cc(-c2ccc(F)cc2)c1C#N` [2-(Cyanomethoxy)-4-(4-fluorophenyl)-6-(pyridin-2-yl)pyridine-3-carbonitrile] here?
Its IC50 is 0.025 µM.

With `Cc1cccnc1-c1cc(-c2ccc(F)cc2)c(C#N)c(OCCCN(C)C)n1` [2-(3-(Dimethylamino)propoxy)-4-(4-fluorophenyl)-6-(3-methylpyridin-2-yl)pyridine-3-carbonitrile] as the compound, how does the IC50 read?
The IC50 was 2.7 µM.

`CC(=O)NCCOc1nc(-c2ccccn2)cc(-c2ccc(F)cc2)c1C#N` [N-(2-(3-Cyano-4-(4-fluorophenyl)-6-(pyridin-2-yl)pyridin-2-yloxy)ethyl)acetamide] was tested. Which IC50 did it give?
The IC50 was 1.9 µM.

For `CCOC(=O)N1CCN(CCOc2nc(-c3ncccc3C)cc(-c3ccc(F)cc3)c2C#N)CC1` [Ethyl 4-(2-(3-cyano-4-(4-fluorophenyl)-6-(3-methylpyridin-2-yl)pyridin-2-yloxy)ethyl)piperazine-1-carboxylate], which IC50 is on record?
The IC50 was 0.23 µM.

`COc1nc(-c2ccccc2)cc(-c2cccc([N+](=O)[O-])c2)c1C#N` [2-Methoxy-4-(3-nitrophenyl)-6-phenylpyridine-3-carbonitrile] was tested. Which IC50 did it give?
The IC50 was 48 µM.
